Earlier results in patent US8980929B2, “Substituted seven-membered heterocyclic compounds as dipeptidyl peptidase-iv inhibitors for the treatment of diabetes” (Merck Sharp & Dohme Corp., priority 2010, dated 2015).
Values belong to the molecule of their own block, whether it stands above or below them.

Experiments:
cardiac allograft = settings: rats; doubled from day 7
hematopoiesis = settings: mouse, cyclophosphamide-induced neutropenia
DPP-4 = DPP-4 (Homo sapiens (Human), UniProt P27487)
DPP-4, sequence (P27487 whole entry, species assumed): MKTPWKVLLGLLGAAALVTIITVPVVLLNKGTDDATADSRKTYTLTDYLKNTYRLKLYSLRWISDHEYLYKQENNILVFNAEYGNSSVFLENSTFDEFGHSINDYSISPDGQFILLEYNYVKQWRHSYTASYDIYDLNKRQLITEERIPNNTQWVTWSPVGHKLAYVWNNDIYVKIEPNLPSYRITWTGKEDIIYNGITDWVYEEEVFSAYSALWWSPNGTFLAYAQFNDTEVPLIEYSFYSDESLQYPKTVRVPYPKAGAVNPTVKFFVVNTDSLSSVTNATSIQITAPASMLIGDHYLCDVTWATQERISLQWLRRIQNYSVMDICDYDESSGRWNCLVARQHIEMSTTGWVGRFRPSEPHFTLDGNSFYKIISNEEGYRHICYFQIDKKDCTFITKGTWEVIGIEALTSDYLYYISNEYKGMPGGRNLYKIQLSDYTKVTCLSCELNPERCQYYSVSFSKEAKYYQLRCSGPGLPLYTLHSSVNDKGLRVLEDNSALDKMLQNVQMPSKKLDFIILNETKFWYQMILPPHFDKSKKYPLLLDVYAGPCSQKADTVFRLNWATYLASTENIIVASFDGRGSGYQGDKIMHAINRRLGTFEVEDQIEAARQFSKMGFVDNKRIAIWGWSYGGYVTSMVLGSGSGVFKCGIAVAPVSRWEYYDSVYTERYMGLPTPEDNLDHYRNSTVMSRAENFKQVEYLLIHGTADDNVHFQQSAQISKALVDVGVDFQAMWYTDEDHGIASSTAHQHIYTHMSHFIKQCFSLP

Molecule: CC(C)N1CCC(c2ccccc2)(c2ccccc2)CC1 [Prodipine, Pro-Pro-diphenyl-phosphonate]
- cardiac allograft survival (cardiac allograft): 14 day

Molecule: CC(C)[C@H](N)C(=O)N1CCC[C@H]1B(O)O [Val-Boro-Pro]
- hematopoiesis (hematopoiesis): stimulated hematopoiesis

- degradation of GRF to GRF[3-44] in plasma (DPP-4): prevented
Molecule: diprotin A
